Laboratory results as given in patent US20070259856A1, “Method for Activating Trpv4 Channel Receptors by Agonists” (priority 2004, published 2007).
Where “and” joins values, the source holds several entries; their conditions need not be identical. Identical values can stand only once. Like-named read-outs stand apart in the source and are kept apart here.

Legend:
[1] = tested on: bovine articular cartilage explants; assay: IL-1 induced collagen degradation (hydroxyproline) in bovine articular cartilage explants; type: cell-based
Procedure: IL-1 stimulates collagen degradation in bovine articular cartilage explants after extended (−2-3 weeks) exposure to IL-1. Collagen breakdown was evaluated by measuring the levels of hydroxyproline, a major component of hydrolyzed collagen fibrils, using a colorimetric assay that is understood in the art. Bovine articular cartilage was stimulated with IL-1 for 18 days, in the absence or presence of Formula Ib or Formula IId (both at 1 uM). Media was removed and replaced every 2-4 days with fresh IL-1 and compound through day 18. As has been shown previously, aggrecan degradation precedes collagen breakdown in IL-1-stimulated bovine cartilage explants. Once aggrecan depletion had been achieved by day 10, media were analyzed for collagen breakdown using the hydroxyproline assay.

[2] = tested on: bovine articular cartilage explants; assay: IL-1 induced aggrecan degradation (GAG release, DMMB) in bovine articular cartilage explants; type: cell-based; settings: Bos taurus; IL-1-stimulated bovine cartilage
From the text: Articular cartilage explants isolated from newborn calves at slaughter were placed in culture, and aggrecan degradation was initiated through stimulation with IL-1. Since aggrecan degradation in this model is believed to be mediated by aggrecanase, TRPV4 channel receptor agonists that are active in the chondrocyte-based aggrecanase peptide assay (Example 11) may also be effective inhibitors in the cartilage explant assay, presumably by blocking aggrecanase production in these tissues.
At the end of the culture period, conditioned media were assayed for glycosaminoglycan (GAG) levels by colorimetric (DMMB) assay as a measure of aggrecan degradation. In bovine explants, IL-1 induced a profound increase in the amount of GAG released into the media during the 3 day culture. When cartilage was treated with IL-1 in combination with Formula IIc, there was a concentration-dependent reduction in GAG release as shown in Table 5.

human cartilage explants = assay: Aggrecan degradation (GAG, DMMB) in human cartilage explants; type: cell-based; settings: Homo sapiens; estimated; 3-point concentration response
Procedure: Because the progression of aggrecan degradation in response to IL-1 in human cartilage is slower than in bovine cartilage, culture media was removed and replaced with fresh treatments every 2-3 days for approximately 3 weeks. For each timepoint, GAG levels were measured by DMMB assay, and cumulative data released over the entire 3 week culture period was calculated.
The data represents cumulative aggrecan degradation after 21 days in culture. […] In addition, Formula IId caused a concentration-dependent reduction of IL-1-induced aggrecan degradation. […] The estimated IC50's shown in Table 7 are very similar to those IC50's calculated from IL-1-stimulated bovine cartilage.

aggrecanase = assay: IL-1 induced aggrecanase production, chondrocyte-based aggrecanase peptide cleavage assay; type: cell-based, bovine
From the text: Aggrecanases (ADAMTSs), in conjunction with MMPs, degrade aggrecan, one of the major matrix components in articular cartilage. […] 2003; 48(1): 119-133].

TRPV4 channel receptor [3] = molecular target: T1, TRPV4 channel receptor (Bos taurus, UniProt A0A8F4X677); assay: Ca2+ influx in bovine articular chondrocytes (FlexStation); type: cell-based
T1 construct: endogenous in cells; host or cells: bovine articular chondrocytes
T1 sequence (A0A8F4X677 1-871): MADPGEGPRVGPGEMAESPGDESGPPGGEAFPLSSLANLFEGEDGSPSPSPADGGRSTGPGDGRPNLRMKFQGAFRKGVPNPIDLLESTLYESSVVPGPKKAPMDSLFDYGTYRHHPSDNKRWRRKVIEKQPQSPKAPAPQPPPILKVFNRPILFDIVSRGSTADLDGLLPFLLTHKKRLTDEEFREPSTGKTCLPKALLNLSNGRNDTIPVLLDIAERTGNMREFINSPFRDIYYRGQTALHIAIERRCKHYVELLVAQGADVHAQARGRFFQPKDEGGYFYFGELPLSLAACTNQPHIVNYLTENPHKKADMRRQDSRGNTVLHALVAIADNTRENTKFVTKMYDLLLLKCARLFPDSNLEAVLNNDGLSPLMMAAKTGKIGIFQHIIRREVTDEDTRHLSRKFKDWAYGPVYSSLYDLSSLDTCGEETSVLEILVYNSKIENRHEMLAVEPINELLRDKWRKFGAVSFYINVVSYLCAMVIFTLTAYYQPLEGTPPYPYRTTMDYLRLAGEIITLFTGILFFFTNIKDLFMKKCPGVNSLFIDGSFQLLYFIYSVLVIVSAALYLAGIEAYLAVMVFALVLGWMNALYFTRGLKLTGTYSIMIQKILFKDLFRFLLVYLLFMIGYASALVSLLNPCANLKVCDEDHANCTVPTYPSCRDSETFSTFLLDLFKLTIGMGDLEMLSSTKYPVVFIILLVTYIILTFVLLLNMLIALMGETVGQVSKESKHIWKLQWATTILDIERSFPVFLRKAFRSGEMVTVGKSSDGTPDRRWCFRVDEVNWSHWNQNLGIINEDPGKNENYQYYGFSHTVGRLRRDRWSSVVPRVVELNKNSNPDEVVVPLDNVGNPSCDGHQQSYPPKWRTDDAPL

TRPV4 channel receptor [4] = molecular target: T2, TRPV4 channel receptor (Homo sapiens, UniProt Q9HBA0); assay: Ca2+ influx in human articular chondrocytes (FlexStation)
T2 sequence (Q9HBA0 whole entry): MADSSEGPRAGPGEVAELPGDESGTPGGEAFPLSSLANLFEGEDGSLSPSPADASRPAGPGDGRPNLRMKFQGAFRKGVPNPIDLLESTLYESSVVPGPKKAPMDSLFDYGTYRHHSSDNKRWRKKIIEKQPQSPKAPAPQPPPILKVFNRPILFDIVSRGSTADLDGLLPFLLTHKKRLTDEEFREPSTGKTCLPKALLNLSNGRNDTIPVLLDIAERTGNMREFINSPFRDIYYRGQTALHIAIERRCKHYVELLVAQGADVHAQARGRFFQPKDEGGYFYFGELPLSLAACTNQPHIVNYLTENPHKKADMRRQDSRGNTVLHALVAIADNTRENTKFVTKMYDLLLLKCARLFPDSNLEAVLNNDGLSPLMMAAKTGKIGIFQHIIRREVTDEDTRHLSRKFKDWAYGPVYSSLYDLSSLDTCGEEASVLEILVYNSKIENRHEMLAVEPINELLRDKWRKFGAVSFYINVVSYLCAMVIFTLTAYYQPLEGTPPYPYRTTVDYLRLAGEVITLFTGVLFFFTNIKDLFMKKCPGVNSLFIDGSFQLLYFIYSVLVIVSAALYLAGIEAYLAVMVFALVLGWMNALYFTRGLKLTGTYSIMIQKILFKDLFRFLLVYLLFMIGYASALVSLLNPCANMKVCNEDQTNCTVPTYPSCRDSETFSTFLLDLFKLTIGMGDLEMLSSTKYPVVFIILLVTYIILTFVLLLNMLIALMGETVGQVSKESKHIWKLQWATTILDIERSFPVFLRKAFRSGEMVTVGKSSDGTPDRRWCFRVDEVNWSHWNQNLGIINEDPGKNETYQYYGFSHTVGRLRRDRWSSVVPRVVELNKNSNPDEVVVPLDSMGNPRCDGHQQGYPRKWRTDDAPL

TRPVR1 = TRPVR1 (Homo sapiens, UniProt Q8NER1); type: cell-based; settings: for pEC50 TRPVR1: intracellular calcium, mean ± s.e.mean, n = 3-5
TRPVR1, sequence (Q8NER1 whole entry): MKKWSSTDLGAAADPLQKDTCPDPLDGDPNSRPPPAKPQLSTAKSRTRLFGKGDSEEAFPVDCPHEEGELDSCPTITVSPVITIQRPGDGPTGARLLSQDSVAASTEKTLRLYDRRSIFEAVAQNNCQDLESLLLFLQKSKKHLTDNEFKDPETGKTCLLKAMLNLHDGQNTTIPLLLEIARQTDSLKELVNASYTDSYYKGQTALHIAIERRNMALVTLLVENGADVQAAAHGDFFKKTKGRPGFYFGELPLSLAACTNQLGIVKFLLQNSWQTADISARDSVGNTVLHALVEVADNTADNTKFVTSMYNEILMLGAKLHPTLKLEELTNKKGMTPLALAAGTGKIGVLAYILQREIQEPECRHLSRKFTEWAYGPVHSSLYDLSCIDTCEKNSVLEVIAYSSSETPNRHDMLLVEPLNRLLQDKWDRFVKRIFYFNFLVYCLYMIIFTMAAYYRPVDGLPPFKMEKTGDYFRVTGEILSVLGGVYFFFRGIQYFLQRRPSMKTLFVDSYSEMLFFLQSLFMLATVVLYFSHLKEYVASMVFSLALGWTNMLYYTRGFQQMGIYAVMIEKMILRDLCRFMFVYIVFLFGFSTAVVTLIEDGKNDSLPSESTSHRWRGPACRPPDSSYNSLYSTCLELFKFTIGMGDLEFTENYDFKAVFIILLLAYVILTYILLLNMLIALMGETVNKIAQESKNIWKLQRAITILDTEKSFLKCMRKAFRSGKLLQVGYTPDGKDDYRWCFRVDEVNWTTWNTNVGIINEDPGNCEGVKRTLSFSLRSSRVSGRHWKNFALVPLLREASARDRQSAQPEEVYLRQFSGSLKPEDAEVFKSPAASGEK

TRPV4 channel receptor [5] = molecular target: T2, TRPV4 channel receptor; assay: Intracellular calcium (FLIPR, Fluo-3) in HEK293 cells transfected with human TRPV4 channel receptor; type: cell-based; set-up: V5-His (from the vector's name only); expressed in transfected cells; host or cells: HEK293; key to pEC50 TRPVR4: IA = inactive; settings: for pEC50 TRPVR4: intracellular calcium, mean ± s.e.mean, n = 3-5
Procedure: (§1) TRPV4 channel receptor cDNA was inserted into the expression vector pcDNA3.1 V5-His (Invitrogen, Carlsbad, Calif.). Wildtype HEK293 cells, or HEK293 cells transfected with the human TRPV4 channel receptor: pcDNA3.1 V5-His construct, or mock transfected cells, or bovine chondrocytes, were seeded into 96-well microtitre plates at 25,000 cells/well and cultured overnight. The cells were then incubated with 4 μM Fluo-3 (Fluo-3: Molecular Probes (Eugene, Oreg.)) for 2 hours at room temperature in the dark. Dye loaded cells were washed 4× with Tyrodes buffer: (NaCl, 145 mM; KCl, 2.5 mM; Hepes, 10 mM; Glucose, 10 mM; MgCl2, 1.2 mM; CaCl2, 1.5 mM), which also contained 0.2% BSA but not probenecid. Agonists and antagonists were also prepared in Tyrodes buffer. Cells were preincubated for 30 minutes with antagonist or buffer. Agonist addition and measurement of cytoplasmic calcium concentration was performed in the FLIPR (Smart, et al., (2000) Br. J. Pharmacol. 129, 227-230).

TRPV4 channel receptor [6] = molecular target: TRPV4 channel receptor (Rattus norvegicus, UniProt Q9ERZ8); assay: Ca2+ influx in rat articular chondrocytes (FlexStation)
TRPV4 channel receptor (Rattus norvegicus, UniProt Q9ERZ8), sequence (Q9ERZ8 whole entry): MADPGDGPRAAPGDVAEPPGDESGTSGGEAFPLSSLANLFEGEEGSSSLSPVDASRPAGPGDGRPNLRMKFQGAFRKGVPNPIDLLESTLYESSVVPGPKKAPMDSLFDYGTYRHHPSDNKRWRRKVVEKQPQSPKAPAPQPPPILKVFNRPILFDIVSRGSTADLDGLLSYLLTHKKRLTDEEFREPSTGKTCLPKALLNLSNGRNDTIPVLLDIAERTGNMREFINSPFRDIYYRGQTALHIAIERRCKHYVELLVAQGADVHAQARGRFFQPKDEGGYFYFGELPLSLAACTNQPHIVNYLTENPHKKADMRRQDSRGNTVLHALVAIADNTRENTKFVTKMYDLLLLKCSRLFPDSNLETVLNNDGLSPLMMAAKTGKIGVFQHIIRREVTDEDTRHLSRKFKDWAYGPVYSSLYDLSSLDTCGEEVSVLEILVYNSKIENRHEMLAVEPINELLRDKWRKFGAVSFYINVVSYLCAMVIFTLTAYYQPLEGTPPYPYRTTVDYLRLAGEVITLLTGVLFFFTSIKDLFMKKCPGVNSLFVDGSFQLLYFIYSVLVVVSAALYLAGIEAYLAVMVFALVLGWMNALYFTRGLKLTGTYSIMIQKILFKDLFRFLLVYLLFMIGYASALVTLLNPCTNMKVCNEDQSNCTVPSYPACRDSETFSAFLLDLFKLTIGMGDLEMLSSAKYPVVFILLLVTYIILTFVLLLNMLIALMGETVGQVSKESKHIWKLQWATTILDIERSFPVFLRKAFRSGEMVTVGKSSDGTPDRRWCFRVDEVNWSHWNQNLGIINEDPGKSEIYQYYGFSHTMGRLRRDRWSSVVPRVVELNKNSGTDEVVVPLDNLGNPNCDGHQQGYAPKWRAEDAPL

[7] = tested on: cells transfected with empty vector; assay: Intracellular calcium (FLIPR) in HEK293 cells transfected with empty vector; type: cell-based; set-up: key to pEC50 empty vector: IA = inactive; settings: for pEC50 empty vector: intracellular calcium, mean ± s.e.mean, n = 3-5
Procedure: as §1

wild type HEK293 cells = assay: Intracellular calcium (FLIPR) in wild type HEK293 cells; type: cell-based; set-up: key to pEC50 wild type: IA = inactive; settings: for pEC50 wild type: intracellular calcium, mean ± s.e.mean, n = 3-5
Procedure: as §1

TRPV4 channel receptor [8] = molecular target: T2, TRPV4 channel receptor; assay: FLIPR assay; type: cell-based
[9] = bovine chondrocytes, read-out: Ca Influx - FLEX (bovine) EC50
[10] = Ca Influx - FLEX (human) EC50, human chondrocytes

IC50 (aggrecanase; Bos taurus) | Ca Influx - FLEX (bovine) % effic. (TRPV4 channel receptor [3]; bovine chondrocytes) | EC50 (TRPV4 channel receptor [3]; [9]) | EC50 (TRPV4 channel receptor [4]; [10]) | Ca Influx - FLEX (human) % effic. (TRPV4 channel receptor [4]; human chondrocytes) | Compound | IC50 [2] | IC50 (human cartilage explants) | pEC50 TRPVR1 (TRPVR1) | pEC50 TRPVR4 (TRPV4 channel receptor [5]) | pEC50 empty vector [7] | pEC50 wild type (wild type HEK293 cells) | also measured
600 nM | 119% | 280 nM | 260 nM | 133% | CC(C)C[C@H](NC(=O)c1cc2ccccc2n1C)C(=O)N[C@@H]1CCCN(S(=O)(=O)c2ccccc2C#N)CC1 [Formula Ib, N-{(1S)-1-[({(4R)-1-[(2-cyanophenyl)sulfonyl]hexahydro-1H-azepin-4-yl}amino)carbonyl]-3-methylbutyl}-methyl-1H-indole-2-carboxamide] | 200 nM | 300 nM |  |  |  |  | Hydroxyproline Mean ± SEM ([1]; 1 uM, IL-1 50 ng/ml, media from day 14-18): 6 ± 2 µg; inhibition at 1 µM ([1]; Bos taurus, 336 h, 1 uM, IL-1 50 ng/ml, media from day 14-18): 95%
 |  |  |  |  | CCCCCCCCCCCCCC(=O)O[C@@H]1[C@@H](C)[C@@]2(O)[C@@H](C=C(CO)C[C@]3(O)C(=O)C(C)=C[C@@H]23)[C@@H]2C(C)(C)[C@]12OC(C)=O [PMA, phorbol 12-myristate 13-acetate] |  |  | 7.86 ± 0.06 | 6.64 ± 0.06 | IA | IA | activation of VR1 (TRPVR1): activated VR1; Emax at VR1 (TRPVR1; compared to capsaicin and RTX): 0.46; intracellular calcium in HEK293-TRPV4 channel receptor cells (TRPV4 channel receptor [5]): increased intracellular calcium; Ca2+ influx (TRPV4 channel receptor [6]; rat chondrocytes): no change in Ca^2+ influx; Ca2+ influx (TRPV4 channel receptor [3]; bovine chondrocytes): no change in Ca^2+ influx; effect on intracellular calcium in cells transfected with empty vector [7]: without effect; effect on intracellular calcium in wild type HEK293 cells (wild type HEK293 cells): without effect; Ca2+ influx (TRPV4 channel receptor [4]; human chondrocytes): no change in Ca^2+ influx
 |  |  |  |  | COc1ccc(S(=O)(=O)N(Cc2cccnc2)[C@@H](C(=O)NO)C(C)C)cc1 [CGS-27023A, reference compound] |  |  |  |  |  |  | block of IL-1-induced collagen degradation [1]: completely blocked
400 nM | 70% | 290 nM | 280 nM | 78% | CC(C)C[C@H](NC(=O)c1cc2ccccc2s1)C(=O)NCCCN(C)S(=O)(=O)c1ccccc1C#N [Formula IIIb, N-{(1S)-1-[({3-[[(cyanophenyl)sulfonyl](methyl)amino]propyl}amino)carbonyl]-3-methylbutyl}-1-benzothiophene-2-carboxamide] | 400 nM | 500 nM |  |  |  |  | EC50 (TRPV4 channel receptor [8]): 700 nM; EC50 (TRPV4 channel receptor [6]; RAC EC50, rat articular chondrocytes, N = 2): 370 nM and 700 nM; RAC % eff (TRPV4 channel receptor [6]; rat articular chondrocytes, N = 2): 99% and 104%; IC50 (aggrecanase): 350 nM; BAC % eff (TRPV4 channel receptor [3]; bovine articular chondrocytes): (104%); EC50 (TRPV4 channel receptor [3]; bovine articular chondrocytes, read-out: BAC EC50): 260 nM; EC50 (TRPV4 channel receptor [4]; HAC EC50, human articular chondrocytes, N = 2): 240 nM and 210 nM; HAC % eff (TRPV4 channel receptor [4]; human articular chondrocytes, N = 2): 124% and 130%
 |  |  |  |  | C=C(C)[C@]12C[C@@H](C)[C@@]34O[C@](Cc5ccccc5)(O[C@@H]1[C@@H]3C=C(COC(=O)Cc1ccc(O)c(OC)c1)C[C@]1(O)C(=O)C(C)=C[C@@H]41)O2 [RTX] |  |  | 8.93 ± 0.20 | IA | IA | IA | 
